Earlier results, collected in patent publication EP3155636B1, “A PROBE FOR EXTRACTION OF MOLECULES OF INTEREST FROM A SAMPLE” (JP Scientific Limited, priority 2014, dated 2015).

Conditions: listed with the MS/MS parameters of 21 WADA controlled substances; source and method not stated

Log P	SMILES
2.14	CC(C)NCC(O)COc1ccc(COCCOC(C)C)cc1 (stereo not drawn) [Bisoprolol]
6.80	CN(C)CCOc1ccc(/C(=C(/CCCl)c2ccccc2)c2ccccc2)cc1 [Toremifene]

The next lines start with the compound.

SMILES	Log P
C=C1C[C@@H]2[C@H](CC[C@]3(C)C(=O)CC[C@@H]23)[C@@]2(C)C=CC(=O)C=C12 [Exemestane]	3.70
Cc1cc(SCc2sc(-c3ccc(C(F)(F)F)cc3)nc2C)ccc1OCC(=O)O [GW501516]	6.29
CCN(CC)C(=O)c1cccnc1 [Nikethamide]	0.33
CC(C)(C)NCC(O)c1ccc(O)c(CO)c1 (stereo not drawn) [Salbutamol]	0.64
